Measured values taken from US9034583B2, “Rapid enzyme-linked immunosorbent assay for detection and identification of pathogens and determination of antimicrobial susceptibility” (priority 2013, dated 2015).

Tests used:
[1] = system: N. gonorrheae (Ceftriaxone Resistant); assay: N-Assay antibiotic susceptibility, N. gonorrheae with Ceftriaxone (Example 6); type: cell-based, Neisseria gonorrheae; conditions: With Ceftriaxone Present, 2 μg/ml
Description: (§1) Prior to performing the N-Assay, bacterial cultures were prepared as follows in order to establish the sensitivity of the assay. An inoculum was taken from a stock culture, and plated onto solid phase nutrient agar and incubated overnight at 37° C. E. faecalis, E. faecium (Vancomycin-Resistant Enterococcus, or VRE) and GBS isolates were plated onto colistin and naladixic acid agar, and N. gonorrheae was plated onto chocolate agar. The gonorrheal culture was performed in a CO2 incubator. Following an overnight culture, an isolated colony was selected of each bacterial species, and the isolated colonies were sub-cultured on solid phase for an additional 24 hours to ensure adequate viability was maintained. Following this, isolated cultures were used to inoculate nutrient broth (LIM broth was used for GBS, Fastidious broth with isovitalex 2% v/v for N. gonorrheae, and BHI broth was used for E. faecalis, E. faecium). A 0.5 McFarland was prepared for each bacterial species, and these were then diluted serially down to 10^−3 in nutrient broth and the OD630 immediately was determined. For each dilution, aliquots were obtained and agar plates were inoculated. The agar plates then were incubated at 37° C. for 24 hours, and the number of colony forming units (CFU) was determined for each bacterial species at each dilution. This was used to generate a standard curve, so that future dilutions when prepared could be developed with known concentrations of bacteria. […] A similar curve was generated for each bacteria studied.
(§2) Antibodies against selected bacteria were diluted 1:100 in coating buffer (carbonate bicarbonate buffer), and 100 μl were placed in microtiter wells and allowed to stand overnight at 4° C. The following day, wells were washed with PBS TWEEN 20 three times, and then blocked with 200 μl of STARTINGBLOCK for 30 minutes at room temperature. Following blocking, wells were washed three times with PBS TWEEN 20, and plates were either stored at 4° C. with a sterile cover placed over them for later use, or used immediately.
(§3) To determine antibiotic susceptibility of the four strains of bacteria, a 0.5 Mcfarland was prepared in nutrient broth and serially dilutions were established. The dilutions were incubated overnight for 18-24 hours at 37° C. (in a CO2 incubator for N. gonorrheae) with specific antibiotics. Parallel dilutions were prepared of each bacterium, in the presence and absence of specific antibiotics, as follows: (1) for E. faecalis, E. faecium, Penicillin G was added in varying concentrations, and as these concentrations were held constant, the bacterial concentration was diluted out; (2) the same parameters were set for GBS with the antibiotic clindamycin; and (3) the same parameters were set for N. gonorrheae with the antibiotic ceftriaxone.
(§4) Following overnight incubation in the presence or absence of the selected antibiotics, 100 μl of the bacterial suspensions were placed into previously coated wells, and plates were allowed to stand at room temperature for 15 minutes. After washing with PBS TWEEN 20 three times, 100 μl of HRP-conjugated antibody directed against the specific bacteria was added in a 1:100 dilution, and allowed to stand at room temperature for 7 minutes. Wells were washed three times with PBS TWEEN 20, and bound antibody was detected by the addition of 100 μl of TMB substrate. OD450) was read after allowing the plate to stand for 3 minutes at room temperature and stopping the reaction with stop solution (KPL).
(§5) After adding stop solution, wells were read at OD450. […] Alternatively, wells were determined to be positive if they turned yellow after addition of the stop solution, if a plate reader was not available.
(§6) These studies were repeated for E. faecalis, E. faecium and N. gonorrheae. For E. faecalis and E. faecium, Penicillin G was used to distinguish between E. faecalis and E. faecium, as E. faecium is resistant to Penicillin G. For N. gonorrheae, the antibiotic used was ceftriaxone.

[2] = system: N. gonorrheae (Ceftriaxone Sensitive); assay: as above; type: cell-based, Neisseria gonorrheae; conditions: summary of Table 3
Description: as §1, §2, §3, §4, §5, §6

[3] = system: Clindamycin Resistant Strain (GBS 11276); assay: N-Assay antibiotic susceptibility, GBS with Clindamycin (Example 6); type: cell-based, Group B Streptococcus (GBS); conditions: for Detection of GBS: With Clindamycin Present, 4 μg/ml, 18 hour incubation in nutrient broth, resistant strain GBS 11276
Description: as §1, §2, §3
as §4, with “After washing with PBS TWEEN 20 three times, 100 μl of HRP-conjugated antibody directed against the specific bacteria was added in a 1:100 dilution, and allowed to stand at room temperature for 7 minutes.” left out
After adding stop solution, wells were read at OD450. […] Alternatively, wells were determined to be positive if they turned yellow after addition of the stop solution, if a plate reader was not available. […]

[4] = system: penicillin-resistant (Pen-R) Strain 31426; assay: Simultaneous identification of N. gonorrheae and antimicrobial susceptibility (Example 4); type: cell-based
Description: (§7) Two strains of N. gonorrheae, penicillin-sensitive (Pen-S) Strain 1279 and penicillin-resistant (Pen-R) Strain 31426, were cultured overnight on Gc agar. A 0.5 McFarland was prepared immediately before wells were to be inoculated, and the two strains were each diluted to a concentration of 10^8 in FB. The bacteria-containing FB for each strain was split into four tubes, in which a different concentration of penicillin was added to each of the tubes of the two strains: 2.0 μg/ml, 1.0 μg/ml, 0.5 μg/ml, and buffer alone as a negative control. Microtiter wells were coated with 100 μl of a 1:200 dilution of rabbit polyclonal antibody directed against N. gonorrheae, and allowed to stand at 4 degrees Celsius overnight. […] Following blocking, wells were again washed three times with PBS. At this stage, the plates were either used immediately, or stored at 4 degrees Celsius for later use. Upon proceeding with the assay, 100 μl of the 10^8 dilution of the two strains of N. gonorrheae were placed in individual wells. The wells were shaken gently on a plate stirrer at room temperature for 15 minutes. Next, wells were washed three times with PBS, and 100 μl of an HRP-conjugated rabbit polyclonal antibody (1:50 dilution in PBS) directed against N. gonorrheae was added to the wells and incubated at room temperature for 5 minutes. Wells were washed three times with PBS, and then bound antibody was detected by the addition of 100 μl of TMB substrate. OD450) was read after allowing the plate to stand for three minutes at room temperature and stopping the reaction with stop solution (KPL). Negative controls consisted of the same preceding steps, but the addition of bacteria was omitted.

[5] = system: penicillin-sensitive (Pen-S) Strain 1279; assay: as above; type: cell-based; conditions: penicillin 0.5, 1.0, 2.0 μg/ml, 10^8 bacteria
Description: as §7

[6] = system: Enterococcus faecium (Penicillin Resistant, i.e., VRE); assay: N-Assay antibiotic susceptibility, Enterococcus with Penicillin G (Example 6); type: cell-based; conditions: for Detection of Enterococcus faecium: With Penicillin Present, 8 μg/ml Penicillin G, 18 hour incubation in nutrient broth
Description: as §1, §2, §3, §4, §5, §6

[7] = system: Enterococcus faecalis (Penicillin Sensitive); assay: as above; type: cell-based; conditions: for Detection of Enterococcus faecalis: With Penicillin Present, 8 μg/ml Penicillin G, 18 hour incubation in nutrient broth
Description: as §1, §2, §3, §4, §5, §6

Question: Which “Detection of Neisseria gonorrheae” value ([1]; 18 hour incubation in nutrient broth, 0.1 CFU/ml) does the source give for CO/N=C(\C(=O)N[C@@H]1C(=O)N2C(C(=O)O)=C(CSc3nc(=O)c(=O)[nH]n3C)CS[C@H]12)c1csc(N)n1 [Ceftriaxone, ceftriaxone] here?
Answer: +

Question: And the “Detection of Neisseria gonorrheae” value ([1]; 18 hour incubation in nutrient broth, 1 CFU/ml)?
Answer: +

Question: And the “Detection of Neisseria gonorrheae” value ([1]; 18 hour incubation in nutrient broth, 10 CFU/ml)?
Answer: +

Question: What about the “Detection of Neisseria gonorrheae” value ([1]; 18 hour incubation in nutrient broth, 100 CFU/ml) of the same compound?
Answer: +

Question: What about the “Detection of Neisseria gonorrheae” value ([1]; 18 hour incubation in nutrient broth, 1,000 CFU/ml) of the same compound?
Answer: +

Question: And the “Detection of Neisseria gonorrheae” value ([1]; 18 hour incubation in nutrient broth, 10,000 CFU/ml)?
Answer: +

Question: What about the “N-Assay result of wells containing N. gonorrheae” value [2] of the same compound?
Answer: negative

Question: With CCC[C@@H]1C[C@@H](C(=O)N[C@@H]([C@H]2O[C@H](SC)[C@H](O)[C@@H](O)[C@H]2O)[C@H](C)Cl)N(C)C1 [Clindamycin, clindamycin] as the compound, how does the “Detection of GBS” value ([3]; 10 CFU/ml) read?
Answer: +

Question: What about the “Detection of GBS” value ([3]; 100 CFU/ml) of the same compound?
Answer: +

Question: What about the “Detection of GBS” value ([3]; 1,000 CFU/ml) of the same compound?
Answer: +

Question: And the “Detection of GBS” value ([3]; 10,000 CFU/ml)?
Answer: +

Question: What about the “lowest dilution at which GBS resistant to Clindamycin was positive” value ([3]; summary of Table 1, incubated 24 hours at 37° C. with Clindamycin) of the same compound?
Answer: 100 bacteria/ml

Question: Which results are given for CC1(C)S[C@@H]2[C@H](NC(=O)Cc3ccccc3)C(=O)N2[C@H]1C(=O)O [Penicillin G, penicillin G]?
Answer: OD450 signal of bound N. gonorrheae between concentrations of penicillin ([4]; penicillin 0.5, 1.0, 2.0 μg/ml, 10^8 bacteria, Pen-R Strain 31426): did not significantly vary; growth by turbidity at OD600 ([4]; wells containing Pen-R strain 31426 with penicillin): increasing turbidity; OD450 signal of bound N. gonorrheae with increasing concentrations of penicillin [5]: progressively decreasing positive signal; lowest dilution at which E. faecium was positive ([6]; Table 2, with Penicillin G): 100 bacteria/ml; Detection of Enterococcus faecium ([6]; 1 CFU/ml): +; Detection of Enterococcus faecium ([6]; 10 CFU/ml): +; Detection of Enterococcus faecium ([6]; 100 CFU/ml): +; Detection of Enterococcus faecium ([6]; 1,000 CFU/ml): +; Detection of Enterococcus faecium ([6]; 10,000 CFU/ml): +; Detection of Enterococcus faecium ([6]; 100,000 CFU/ml): +; Detection of Enterococcus faecium ([6]; 1,000,000 CFU/ml): +; Detection of Enterococcus faecium ([6]; 10,000,000 CFU/ml): +; N-Assay result of wells containing E. faecalis ([7]; Table 2, with Penicillin G): negative; Detection of Enterococcus faecalis ([7]; 100,000 CFU/ml): +; Detection of Enterococcus faecalis ([7]; 1,000,000 CFU/ml): +; Detection of Enterococcus faecalis ([7]; 10,000,000 CFU/ml): +
